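Grown in 96-well plates, cells were treated for 48 hours with each compound at five concentrations. Insufficient inhibition: endpoint recorded as highest concentration tested. At the GI50, growth is halved. The concentration for full growth arrest is given as TGI.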 A value given as a limit tells only on which side of the number the result lay.

Some test systems named below: SN12C renal; SK-MEL-5 melanoma; 786-0 renal; HL-60(TB) leukemia; U251 CNS; LOX IMVI melanoma; KM12 colon; HS 578T breast; COLO 205 colon; SF-268 CNS.
Assay in all cases: inhibition of tumour cell growth, NCI panel, 48 h

Take `CC(C)(C)N1CCC1CN` (stereo not given): the GI50 in the experiment with SN12C renal, in the experiment with SK-MEL-5 melanoma, with 786-0 renal, in the experiment on HL-60(TB) leukemia, in the experiment on U251 CNS and in the experiment on LOX IMVI melanoma was more than 100 µM in each case. Besides, the GI50 with KM12 colon, with HS 578T breast, in the experiment on COLO 205 colon and in the experiment with SF-268 CNS was more than 100 µM throughout. Further, the TGI in the experiment on SN12C renal, in the experiment on SK-MEL-5 melanoma, with 786-0 renal, in the experiment with HL-60(TB) leukemia, in the experiment on U251 CNS and in the experiment with LOX IMVI melanoma was more than 100 µM throughout. For the same compound, the TGI in the experiment with KM12 colon, in the experiment on HS 578T breast, in the experiment with COLO 205 colon and with SF-268 CNS was more than 100 µM throughout.
As for `O=C1C(Cl)=C(Sc2nnc3c4ccccc4c4ccccc4c3n2)C(=O)c2ccccc21`, the TGI in the experiment on SN12C renal stood at 33.1 µM; in the experiment with SK-MEL-5 melanoma it was 22.4 µM; with 786-0 renal, 33.9 µM; in the experiment on HL-60(TB) leukemia it was 7.59 µM; in the experiment on U251 CNS, 28.4 µM; in the experiment on LOX IMVI melanoma, 17.2 µM. For the same compound, the TGI with KM12 colon was 30.7 µM; in the experiment with HS 578T breast, more than 100 µM; in the experiment on COLO 205 colon, 38.9 µM; in the experiment on SF-268 CNS, 90.6 µM.
`COC(=O)[C@@H](C)C[C@H](Cc1cn(C)c2ccccc12)NC(=O)c1csc([C@@H](C[C@H](C(C)C)N(C)C(=O)[C@@H](NC(=O)[C@H]2CCCCN2C)C(C)C)OC(C)=O)n1`: the GI50 is 0.0232 µM with SN12C renal; 0.00595 µM in the experiment with SK-MEL-5 melanoma; 0.0545 µM in the experiment with 786-0 renal; 0.00469 µM in the experiment on HL-60(TB) leukemia; 0.0102 µM with U251 CNS; 0.011 µM in the experiment on LOX IMVI melanoma. Further, the GI50 in the experiment on KM12 colon was 0.0108 µM; in the experiment with HS 578T breast, 0.0105 µM; with COLO 205 colon it was 0.00788 µM; in the experiment on SF-268 CNS, 0.0272 µM. In addition, the TGI was more than 16.7 µM in the experiment on SN12C renal; 0.252 µM in the experiment on SK-MEL-5 melanoma; more than 13 µM with 786-0 renal; 0.0194 µM in the experiment with HL-60(TB) leukemia; more than 16.7 µM in the experiment on U251 CNS; more than 16.7 µM with LOX IMVI melanoma. Besides, the TGI in the experiment with KM12 colon was more than 16.7 µM; with HS 578T breast it was 7.58 µM; with COLO 205 colon it was 0.0859 µM; in the experiment on SF-268 CNS it was more than 16.7 µM.
As to `COc1cc(/C=C2\C[C@H]3[C@@H]4CC=C5C[C@@H](O)CC[C@]5(C)[C@H]4CC[C@]3(C)[C@H]2O)ccc1OCCN1CCCC1`, the GI50 with SN12C renal is 8.48 µM; in the experiment with SK-MEL-5 melanoma, 9.58 µM; in the experiment with 786-0 renal it was 6.16 µM; with HL-60(TB) leukemia, 9.96 µM; with U251 CNS, 12.8 µM; in the experiment with LOX IMVI melanoma it was 17.9 µM. Further, the GI50 was 9.69 µM with KM12 colon, 11.1 µM in the experiment on HS 578T breast, 12.9 µM with COLO 205 colon and 9.72 µM in the experiment with SF-268 CNS. The TGI was 17.9 µM in the experiment on SN12C renal; 23.6 µM in the experiment on SK-MEL-5 melanoma; 16 µM with 786-0 renal; 19 µM in the experiment with HL-60(TB) leukemia; 40.4 µM in the experiment with U251 CNS; more than 50 µM with LOX IMVI melanoma. In addition, the TGI in the experiment with KM12 colon was 19.8 µM; with HS 578T breast it was 25.1 µM; with COLO 205 colon it was more than 50 µM; with SF-268 CNS, 22.8 µM.
Turning to `NC1=CC(=O)c2cccnc2C1=O`, the GI50 is 1.49 µM in the experiment on SN12C renal; 1.58 µM with SK-MEL-5 melanoma; 1.78 µM in the experiment on 786-0 renal; 1.05 µM in the experiment with HL-60(TB) leukemia; 1.46 µM in the experiment on U251 CNS; 0.981 µM in the experiment with LOX IMVI melanoma. Also, the GI50 is 3.28 µM in the experiment on KM12 colon, 2.28 µM in the experiment on HS 578T breast, 3.33 µM with COLO 205 colon and 1.48 µM with SF-268 CNS. Besides, the TGI was 2.94 µM in the experiment with SN12C renal; 2.95 µM with SK-MEL-5 melanoma; 3.75 µM in the experiment on 786-0 renal; 3.99 µM in the experiment on HL-60(TB) leukemia; 2.83 µM in the experiment on U251 CNS; 2.69 µM in the experiment with LOX IMVI melanoma. Moreover, the TGI in the experiment with KM12 colon was 13.1 µM; in the experiment on HS 578T breast it was 8.17 µM; in the experiment on COLO 205 colon, 11.7 µM; in the experiment with SF-268 CNS, 3.78 µM.
Consider `COc1cc2nccc(Oc3ccc(NC(=O)NC4CC4)c(Cl)c3)c2cc1C(N)=O`, for which the GI50 with SN12C renal was 7.44 µM; in the experiment with SK-MEL-5 melanoma, 40 µM; in the experiment on 786-0 renal, 13.4 µM; with HL-60(TB) leukemia it was more than 100 µM; in the experiment with U251 CNS it was 11.5 µM; with LOX IMVI melanoma, 70.2 µM. Also, the GI50 is 5.5 µM in the experiment on KM12 colon, 14.5 µM in the experiment with HS 578T breast, more than 72.8 µM in the experiment on COLO 205 colon and 10.3 µM with SF-268 CNS. The TGI in the experiment with SN12C renal is more than 100 µM; in the experiment on SK-MEL-5 melanoma, more than 100 µM; in the experiment on 786-0 renal it was 37.7 µM; in the experiment with HL-60(TB) leukemia it was more than 100 µM; in the experiment with U251 CNS, 42.8 µM; with LOX IMVI melanoma it was more than 100 µM. Besides, the TGI was more than 100 µM with KM12 colon, more than 86.9 µM in the experiment with HS 578T breast, more than 100 µM in the experiment on COLO 205 colon and 48 µM in the experiment with SF-268 CNS.
Take `C=CCC(N[C@@H](CO)c1ccccc1)c1cn(Cc2ccccc2Cl)c(=O)n(Cc2ccccc2Cl)c1=O` (stereo not given in full): the GI50 in the experiment on SN12C renal was more than 100 µM; with SK-MEL-5 melanoma, more than 100 µM; in the experiment with 786-0 renal it was more than 100 µM; in the experiment with HL-60(TB) leukemia it was 93.2 µM; in the experiment on U251 CNS, more than 100 µM; in the experiment with LOX IMVI melanoma, more than 100 µM. The GI50 with KM12 colon, with HS 578T breast, in the experiment with COLO 205 colon and in the experiment with SF-268 CNS was more than 100 µM in each case. The TGI with SN12C renal, in the experiment on SK-MEL-5 melanoma, with 786-0 renal, in the experiment with HL-60(TB) leukemia, in the experiment on U251 CNS and in the experiment on LOX IMVI melanoma was more than 100 µM in each case. Moreover, the TGI in the experiment on KM12 colon, in the experiment on HS 578T breast, in the experiment with COLO 205 colon and with SF-268 CNS was more than 100 µM throughout.
On to `CSC1=Nc2c(c(C)c(-c3ccccc3)n2CCCN2CCCCC2)C2=NC(=O)C[C@H](C)N12`, for which the GI50 was 2.42 µM in the experiment with SN12C renal; 1.99 µM in the experiment on SK-MEL-5 melanoma; 4.48 µM in the experiment with 786-0 renal; 2.51 µM in the experiment on HL-60(TB) leukemia; 2.71 µM in the experiment with U251 CNS; 3.16 µM with LOX IMVI melanoma. Also, the GI50 in the experiment on KM12 colon is 3.26 µM; in the experiment with HS 578T breast, 2.04 µM; with COLO 205 colon, 1.51 µM; in the experiment with SF-268 CNS, 3.96 µM. The TGI was 20.9 µM with SN12C renal; 4.64 µM in the experiment on SK-MEL-5 melanoma; 36.5 µM with 786-0 renal; more than 19.8 µM in the experiment on HL-60(TB) leukemia; 17.7 µM in the experiment with U251 CNS; 13.4 µM in the experiment on LOX IMVI melanoma. The TGI in the experiment on KM12 colon was 12.5 µM; in the experiment with HS 578T breast, 10.4 µM; with COLO 205 colon it was 2.95 µM; with SF-268 CNS, 21.9 µM.
Regarding `CCCCCCCC/C=C/CCCCCCCC1=NC(C)(C)CN1CC(C)O` (stereo not given), the GI50 in the experiment with SN12C renal was 3.3 µM; with SK-MEL-5 melanoma it was 6.39 µM; with 786-0 renal, 1.71 µM; in the experiment with HL-60(TB) leukemia, 1.88 µM; in the experiment on U251 CNS it was 1.64 µM; with LOX IMVI melanoma it was 1.52 µM. Besides, the GI50 is 1.99 µM with KM12 colon, 1.9 µM in the experiment with HS 578T breast, 1.76 µM with COLO 205 colon and 1.73 µM with SF-268 CNS. The TGI in the experiment on SN12C renal was found to be 12.3 µM; with SK-MEL-5 melanoma, 16.9 µM; with 786-0 renal, 3.16 µM; in the experiment with HL-60(TB) leukemia, 4.44 µM; in the experiment with U251 CNS, 3.02 µM; in the experiment with LOX IMVI melanoma it was 2.88 µM. Also, the TGI in the experiment with KM12 colon was 3.98 µM; in the experiment on HS 578T breast it was 4.62 µM; with COLO 205 colon, 3.45 µM; in the experiment on SF-268 CNS it was 3.16 µM.
For the compound `Cc1c(O)c2ccccc2oc1=O`, the TGI with SN12C renal, with SK-MEL-5 melanoma, in the experiment on 786-0 renal, with HL-60(TB) leukemia, in the experiment with U251 CNS and with LOX IMVI melanoma was more than 100 µM throughout. For the same compound, the TGI in the experiment with KM12 colon, with HS 578T breast, in the experiment with COLO 205 colon and in the experiment on SF-268 CNS was more than 100 µM each time.
In the case of `COc1ccc(N=Cc2c(O)ccc3c2oc2cc(Cl)c(O)c(Cl)c23)cc1`, the GI50 in the experiment on SN12C renal was 19.3 µM; in the experiment with SK-MEL-5 melanoma, 10.5 µM; in the experiment with 786-0 renal it was 19.2 µM; with HL-60(TB) leukemia it was 13.2 µM; in the experiment with U251 CNS it was 5.39 µM; with LOX IMVI melanoma, 15.1 µM. Further, the GI50 in the experiment with KM12 colon was 7.91 µM; in the experiment on HS 578T breast it was 4.45 µM; with COLO 205 colon, 16 µM; in the experiment with SF-268 CNS, 6.68 µM. Besides, the TGI in the experiment on SN12C renal amounted to 63.6 µM; in the experiment on SK-MEL-5 melanoma it was 27.7 µM; with 786-0 renal, 52 µM; in the experiment on HL-60(TB) leukemia, 42.7 µM; in the experiment on U251 CNS it was 34.9 µM; in the experiment with LOX IMVI melanoma, 53.4 µM. For the same compound, the TGI stood at 21.3 µM in the experiment with KM12 colon, 23.1 µM in the experiment with HS 578T breast, 33.2 µM in the experiment on COLO 205 colon and 29.6 µM in the experiment on SF-268 CNS.
